In one assay the test system is other quinol oxidases. In words: Specificity versus other quinol oxidases. Type of assay: biochemical. Particulars: specific for membrane-bound and purified AOX.
For assay [1], the target named is cytochrome bc1 complex (Solanum tuberosum (Potato), UniProt P29757). In words: Respiratory activity of potato mitochondria lacking AOX (cytochrome bc1 complex), oxygen electrode. Type of assay: biochemical. The following applies: 0.3 mg potato mitochondria respiring on 1 mM NADH, 25° C., 1 μM CCCP. The method, then:
(§1) Following on from this work, the inventors set out to test whether or not these compounds also have any effect on the respiratory activity of cytochrome bc1 complex.
(§2) Respiratory activity was measured in a medium containing 0.3M mannitol, 10 mM KCl, 5 mM MgCl2, 1 mM potassium phosphate and 10 mM MOPS (3-(N-morpholino)propanesulfonic acid) buffer pH7.4. Either 0.9 mg of rat liver mitochondria respiring on 5 mM succinate or 0.3 mg potato mitochondria respiring on 1 mM NADH were used. Respiration was measured using a Rank oxygen electrode of 0.4 ml volume at 25° C. in the presence of 1 μM CCCP (Carbonyl cyanide […]). The results were compared with ascochlorin (a known bc1 inhibitor) and azoxystrobin (a commercial fungicide targeted at the bc1 complex).
(§3) Tables 3 and 4 summarise the concentration of inhibitor that was required to reduce the respiration of cytochrome bc1 complex (in the absence of AOX) by 50%. […] The lower the IC50 value the better, since it means that a lower amount of the compound is needed to halve the respiratory activity.

Assay [2] relates to Qo and Qi binding-sites of cytochrome bc1 complex. The assay is described as follows: Titration using mitochondria in which the alternative oxidase is absent: bc1 binding sites inhibited. Type of assay: biochemical. Particulars: mitochondria without AOX.
Text: as §1

Assay [3] addresses cytochrome bc1 complex (Rattus norvegicus (Rat), UniProt P00159). The assay is described as follows: Respiratory activity of rat liver mitochondria lacking AOX (cytochrome bc1 complex), oxygen electrode. Type of assay: biochemical. The following applies: 0.9 mg rat liver mitochondria respiring on 5 mM succinate; 25° C.; 1 μM CCCP. As for the experimental part: as §1, §2, §3
For a further assay, the target named is recombinant AOX protein (Trypanosoma brucei brucei, UniProt Q26710). The assay is described as follows: biochemical. The following applies: purified recombinant AOX protein; oxygen consumption; 1 mM NADH as substrate. The method, then:
Table 1 summarises the concentration of inhibitor required to reduce the respiration of purified recombinant AOX protein by 50%. Respiration was measured as the rate of oxygen consumption in the presence of 1 mM NADH as substrate and the numbers represent the final I50 concentration of the inhibitor.

Setting [4] is: read-out: IC50 (Potato mitochondria).

Structures are written as SMILES. “And” between values parts separate entries of the source, which are not always exact repeats. Equal values may be shown once. Read-outs that look alike come from different tables or passages of the source.

Consider `CC(C)=CCC/C(C)=C/Cc1c(O)c(Cl)c(C)c(C=O)c1O` [Colletochlorin B], for which the “inhibition of other quinol oxidases” value in the assay with other quinol oxidases was “did not appear to inhibit other quinol oxidases”. Besides, the IC50 (usually the midpoint of a concentration-inhibition curve) on cytochrome bc1 complex [1] (setting [4]) worked out at 750 nM. The “cytochrome bc1 complex binding sites inhibited” value in assay [2] is “both the Qo and Qi binding-sites”.

As to `CO/C=C(/C(=O)OC)c1ccccc1Oc1cc(Oc2ccccc2C#N)ncn1` [Azoxystrobin, azoxystrobin], the IC50 at cytochrome bc1 complex [3] was ~525 nM and 525 nM; at cytochrome bc1 complex [1] (setting [4]), ~1400 nM and 1400 nM.

As to `CCCCCCCCOC(=O)c1cc(O)c(O)c(O)c1` [Octyl Gallate], the IC50 at recombinant AOX protein stood at 105 nM.

`CC(/C=C/[C@@]1(C)[C@H](C)CCC(=O)[C@@H]1C)=C\Cc1c(O)c(Cl)c(C)c(C=O)c1O` [Ascochlorin, ascochlorin]: the IC50 was 187 nM against cytochrome bc1 complex [3] and 500 nM against cytochrome bc1 complex [1] (IC50 (Potato mitochondria)).

Turning to `C/C(=C\Cc1c(O)c(Cl)c(C)c(C=O)c1O)CC/C=C(\C)[C@@H]1CC(=O)C(C)(C)O1` [Ascofuranone], at cytochrome bc1 complex [1] (IC50 (Potato mitochondria)), the half-maximal inhibitory concentration (IC50) was ~30000 nM and 30000 nM.

These data come from patent publication US11565996B2, “Compounds for use as inhibitors of alternative oxidase or cytochrome bc1 complex” (AlternOx Scientific Limited, priority 2012, dated 2023).
